Test results: PubChem BioAssay AID1963873 (Molecular Pharmacology Branch, DTP, NCI, 2024)

Test system: 276233-004-R-J1-PDC KRAS spheroids with HUVEC/MSC, viability
Assay: Anticancer human tumor 276233-004-R-J1-PDC patient-derived colon adenocarcinoma cell line growth inhibition [KRAS2]
Conditions: for viability, T/C: stronger effect = lower value
Procedure, shortened: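 Combination screen of spheroid viability in tumor-cell co-cultures with endothelial (HUVEC) and mesenchymal stem cell stroma. Each agent was tested in half-log dilutions, topping at clinical Cmax or at 10 microM without a known Cmax.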
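Further: cells exposed to agents for seven days before viability read.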
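Wherever viability, T/C is given: 100% = DMSO vehicle control wells and lower values mean fewer viable cells.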

What does the source list for `COc1cc2nccc(Oc3ccc(NC(=O)C4(C(=O)Nc5ccc(F)cc5)CC4)cc3)c2cc1OC` + COc1cc2nc(C)nc(NC(C)c3cc(N)cc(C(F)(F)F)c3)c2cc1OC1CCOC1?
IC50 (curve of first compound, second compound 0.1 µM): > 10 µM; IC50 (curve of first compound, second compound 0.316 µM): > 10 µM; IC50 (curve of first compound, second compound 1 µM): > 10 µM; IC50 (curve of first compound, second compound 3.16 µM): > 10 µM; IC50 (curve of first compound, second compound 10 µM): < 0.0316 µM; viability, T/C (second compound 0.1 µM, first compound 0.0316 µM): 74.9%; viability, T/C (second compound 0.1 µM, first compound 0.1 µM): 98.7%; viability, T/C (second compound 0.1 µM, first compound 0.316 µM): 87.2%; viability, T/C (second compound 0.1 µM, first compound 1 µM): 92%; viability, T/C (second compound 0.1 µM, first compound 3.16 µM): 78.9%; viability, T/C (second compound 0.1 µM, first compound 10 µM): 98.8%; viability, T/C (second compound 0.316 µM, first compound 0.0316 µM): 85.9%; viability, T/C (second compound 0.316 µM, first compound 0.1 µM): 80.8%; viability, T/C (second compound 0.316 µM, first compound 0.316 µM): 111%; viability, T/C (second compound 0.316 µM, first compound 1 µM): 99.7%; viability, T/C (second compound 0.316 µM, first compound 3.16 µM): 79.3%; viability, T/C (second compound 0.316 µM, first compound 10 µM): 101%; viability, T/C (second compound 1 µM, first compound 0.0316 µM): 84.7%; viability, T/C (second compound 1 µM, first compound 0.1 µM): 85.7%; viability, T/C (second compound 1 µM, first compound 0.316 µM): 88.6%; viability, T/C (second compound 1 µM, first compound 1 µM): 71.4%; viability, T/C (second compound 1 µM, first compound 3.16 µM): 60.2%; viability, T/C (second compound 1 µM, first compound 10 µM): 110%; viability, T/C (second compound 3.16 µM, first compound 0.0316 µM): 75.8%; viability, T/C (second compound 3.16 µM, first compound 0.1 µM): 81.1%; viability, T/C (second compound 3.16 µM, first compound 0.316 µM): 103%; viability, T/C (second compound 3.16 µM, first compound 1 µM): 60.8%; viability, T/C (second compound 3.16 µM, first compound 3.16 µM): 44.2%; viability, T/C (second compound 3.16 µM, first compound 10 µM): 98.3%; viability, T/C (second compound 10 µM, first compound 0.0316 µM): 22.5%; viability, T/C (second compound 10 µM, first compound 0.1 µM): 17.7%; viability, T/C (second compound 10 µM, first compound 0.316 µM): 19.5%; viability, T/C (second compound 10 µM, first compound 1 µM): 11.5%; viability, T/C (second compound 10 µM, first compound 3.16 µM): 1.3%; viability, T/C (second compound 10 µM, first compound 10 µM): 26.8%

For `CCN1CCN(Cc2ccc(Nc3ncc(F)c(-c4cc(F)c5nc(C)n(C(C)C)c5c4)n3)nc2)CC1`, which viability, T/C (compound 0.01 µM) is on record?
The viability, T/C was 92.1% [middle of 5 runs].

And the viability, T/C (compound 0.1 µM)?
The viability, T/C was 82.8% [middle of 5 runs].

And the viability, T/C (compound 0.316 µM)?
The viability, T/C was 95.5% [middle of 5 runs].

What about the viability, T/C (compound 1 µM) of the same compound?
Its viability, T/C is 106% [middle of 5 runs].

What about the IC50 (curve of compound) of the same compound?
Its IC50 is over 1 µM.
